Source: patent publication US11464770B2, “Anticancer pharmaceutical composition” (NATIONAL CANCER CENTER, priority 2016, dated 2022)
Read-outs that look alike come from different tables or passages of the source.

Tests used:
[1] = tested on: lung cancer cell lines (e.g. NCI-H23, NCI-H1229); experiment: Cell based assay, cell viability (CellTiter-Glo), lung cancer cell lines; conditions: Homo sapiens
Protocol: (§1) Commercially available bladder cancer, prostate cancer, lung cancer, breast cancer, blood cancer, pancreatic cancer, colorectal cancer, brain cancer, neuroblastoma, melanoma, liver cancer, cervical carcinoma, ovarian cancer, renal cancer, and papilloma cell lines were each treated with trypsin-EDTA and cultured, followed by being seeded in each well of a 96 well plate. After 24 hours of treatment at constant temperature, the respective cells were treated with the candidate compound so that a final concentration became 0 to 2 μM. The treated cells were additionally cultured for 72 hours, and cell viability was measured by using an ATP detection method (CellTiter-Glo® Luminescent Cell Viability Assay, Promega).

brain cancer cell lines = experiment: Cell based assay, cell viability (CellTiter-Glo), brain cancer cell lines; conditions: Homo sapiens
Protocol: as §1, with “After 24 hours of treatment at constant temperature, the respective cells were treated with the candidate compound so that a final concentration became 0 to 2 μM.” left out

[2] = tested on: cervical carcinoma cell lines; experiment: Cell based assay, cell viability (CellTiter-Glo), cervical carcinoma cell lines; conditions: Homo sapiens; HeLa cells
Protocol: as §1, with “After 24 hours of treatment at constant temperature, the respective cells were treated with the candidate compound so that a final concentration became 0 to 2 μM.” left out

[3] = A549 cells, 72 hours treatment, CellTiter-Glo, read-out: IC50, lung cancer cell line A549
[4] = DMS 114 cells, 72 hours treatment, CellTiter-Glo, read-out: IC50, lung cancer cell line DMS 114
[5] = MRC-5 cells, 72 hours treatment, CellTiter-Glo, read-out: IC50
[6] = NCI-H23 cells, 72 hours treatment, CellTiter-Glo, read-out: IC50, lung cancer cell line NCI-H23
[7] = NCI-H460 cells, 72 hours treatment, CellTiter-Glo, read-out: IC50, lung cancer cell line NCI-H460
[8] = NCI-H522 cells, 72 hours treatment, CellTiter-Glo, read-out: IC50, lung cancer cell line NCI-H522
[9] = NCI-H1299 cells, 72 hours treatment, CellTiter-Glo, read-out: IC50, lung cancer cell line NCI-H1299
[10] = NCI-H1437 cells, 72 hours treatment, CellTiter-Glo, read-out: IC50, lung cancer cell line NCI-H1437
[11] = U138-MG, U-138 MG cell line, read-out: IC50, Brain cancer cell line U-138 MG
[12] = T98G cell line, read-out: IC50, Brain cancer cell line T98G
[13] = U-251 MG cell line, read-out: IC50, Brain cancer cell line U-251 MG

SMILES	IC50 [1, 3] [µM]	IC50 [1, 4] [µM]	IC50 [1, 5] [µM]	IC50 [1, 6] [µM]	IC50 [1, 7] [µM]	IC50 [1, 8] [µM]	IC50 [1, 9] [µM]	IC50 [1, 10] [µM]	IC50 (brain cancer cell lines; [11]) [µM]	IC50 (brain cancer cell lines; [12]) [µM]	IC50 (brain cancer cell lines; [13]) [µM]	IC50 [2] [µM]	IC50 ([1]; Lung cancer cell line A549, 72 hours, cell viability (CellTiter-Glo), read-out: IC50, A549) [µM]	IC50 ([1]; Lung cancer cell line DMS 114, 72 hours, cell viability (CellTiter-Glo), read-out: IC50, DMS 114) [µM]	IC50 ([1]; Lung cancer cell line NCI-H23, 72 hours, cell viability (CellTiter-Glo), read-out: IC50, NCI-H23) [µM]	IC50 ([1]; Lung cancer cell line NCI-H460, 72 hours, cell viability (CellTiter-Glo), read-out: IC50, NCI-H460) [µM]	IC50 ([1]; Lung cancer cell line NCI-H522, 72 hours, cell viability (CellTiter-Glo), read-out: IC50, NCI-H522) [µM]	IC50 ([1]; Lung cancer cell line NCI-H1299, 72 hours, cell viability (CellTiter-Glo), read-out: IC50, NCI-H1299) [µM]	IC50 ([1]; Lung cancer cell line NCI-H1437, 72 hours, cell viability (CellTiter-Glo), read-out: IC50, NCI-H1437) [µM]	IC50 ([1]; MRC-5 (listed under Lung cancer cell line), 72 hours, cell viability (CellTiter-Glo), read-out: IC50, MRC-5) [µM]
CSc1c(C(C)=O)c(=O)c2c(Cl)ccc(Br)c2n1C [Compound 5, 3-acetyl-8-bromo-5-chloro-1-methyl-2-(methylthio)quinolin-4(1H)-one]	> 2	> 2	> 2	> 2	> 2	> 2	> 2	> 10	> 10	> 10	> 2	> 10								
CSc1c(C(C)=O)c(=O)c2c(Cl)ccc(Br)c2n1C(C)=O [Compound 18, 1,1′-(8-bromo-5-chloro-2-(methylthio)-4-oxoquinoline-1,3(4H)-diyl)bis(ethan-1-one)]	> 2	> 2	> 2	> 2	> 2	> 2	> 2	> 10	> 10	> 10	> 2	> 10								
CC(=O)c1c([S+]([O-])Cc2ccccc2C#N)[nH]c2c(Br)ccc(Cl)c2c1=O (stereo not drawn) [Compound 58, 2-(((3-acetyl-8-bromo-5-chloro-4-oxo-1,4-dihydroquinolin-2-yl)sulfinyl)methyl)benzonitrile]	> 2	> 2	0.76	0.8	> 2	1.94	1.15	> 10	1.46	> 10	0.84	> 10								
CC(=O)c1c(S(C)(=O)=O)n(C(=O)c2ccc(Br)cc2)c2c(Br)ccc(Cl)c2c1=O [Compound 21, 3-acetyl-8-bromo-1-(4-bromobenzoyl)-5-chloro-2-(methylsulfonyl)quinolin-4(1H)-one]	> 2	> 2	> 2	> 2	> 2	> 2	> 2	> 10	> 10	> 10	> 2	> 10								
CC(=O)c1c(SCc2ccccc2)[nH]c2c(Br)ccc(Cl)c2c1=O [Compound 3, 3-acetyl-2-(benzylthio)-8-bromo-5-chloroquinolin-4(1H)-one]	> 2	> 2	> 2	> 2	> 2	> 2	> 2	> 10	> 10	> 10	> 2	> 10								
CC(=O)c1c([S+]([O-])Cc2ccc(S(F)(F)(F)(F)F)cc2)[nH]c2c(Br)ccc(Cl)c2c1=O (stereo not drawn) [Compound 68, 3-acetyl-8-bromo-5-chloro-2-((4-(pentafluoro-16-sulfanyl)benzyl)sulfinyl)quinolin-4(1H)-one]	1.38	> 2	0.95	0.77	1.41	> 2	1.24	> 10	1.14	> 2	0.93	> 2								
CC(=O)c1c([S+]([O-])Cc2ccc(Cl)nc2)[nH]c2c(Br)ccc(Cl)c2c1=O (stereo not drawn) [Compound 104, 3-acetyl-8-bromo-5-chloro-2-(((6-chloropyridin-3-yl)methyl)sulfinyl)quinolin-4(1H)-one]									1.47	> 10	> 2	> 2	1.68	> 2	1.27	1.51	1.41	1.17	> 10	1.62
CSc1c(C(C)=O)c(=O)c2c(Cl)ccc(Br)c2n1S(=O)(=O)c1ccc(C(C)(C)C)cc1 [Compound 40, 3-acetyl-8-bromo-1-((4-(tert-butyl)phenyl)sulfonyl)-5-chloro-2-(methylthio)quinolin-4(1H)-one]	> 2	> 2	> 2	> 2	> 2	> 2	> 2	> 10	> 10	> 10	> 2	> 10								
COCSc1[nH]c2c(Br)ccc(Cl)c2c(=O)c1C(C)=O [Compound 61, 3-acetyl-8-bromo-5-chloro-2-((methoxymethyl)thio)quinolin-4(1H)-one]	> 2	> 2	> 2	> 2	> 2	> 2	> 2	> 10	> 10	> 10	> 2	> 10								
